Non-standard residues stand in square brackets, D forms with d. Residues, ends and D or L forms follow the SMILES beside them. *: point of attachment. Phe(3-F) = N[C@@H](Cc1cccc(F)c1)C(=O)O; Phe(2-F) = N[C@@H](Cc1ccccc1F)C(=O)O; Sta = CC(C)C[C@H](N)[C@@H](O)CC(=O)O; Isovaleryl = CC(C)CC(=O)*
Columns and labels:
Assay type in all cases: biochemical
Sap1 of Candida albicans = Sap1 of Candida albicans (Candida albicans, UniProt P0CY27); test: Inhibition of proteolytic activity of Sap1 (resorufin-marked casein, fluorescence)
Experimental: (§1) For this purpose, that inhibitor concentration was determined in vitro at which the proteolytic activity of the enzyme or its velocity of metabolizing a substrate, respectively, was reduced for 50%.
(§2) The proteolytic activity of the tested Saps was determined at the pH optimum of those Saps. Resorufin-marked casein was used as substrate. Proteolysis of casein can be detected by an increase in fluorescence due to released resorufin (a fluorescence marker) by proteolysis.
(§3) Sap1, Sap3 and Sap6 of Candida albicans were independently dissolved in 2-(N-morpholino)ethanesulfonic acid (MES) having a concentration of 10 mmol/l and a pH of 6.5 resulting in enzyme solutions having a Sap concentration of 100 mmol/l. After one hour incubation at room temperature, 80 μl of a substrate solution comprising resorufin-marked casein in a sodium citrate buffer having a concentration of 500 mmol/l and a pH of 3.5 (in case of Sap3), 4.5 (in case of Sap1) and 5.0 (in case of Sap6) were added to 20 μl of enzyme solution. The resulting Sap concentration was 5 nmol/l. The resulting casein concentration was chosen such that the Saps could work in excess of substrate. Different Sap inhibitors were added, resulting in a final inhibitor concentration of 1 nmol/1, 2 nmol/1, 5 nmol/1, 10 nmol/l, nmol/l or 50 nmol/l in each case. One enzyme-substrate sample was left without addition of inhibitor. All experiments were performed in triplicate.
(§4) The mixture of enzyme and substrate or of enzyme, substrate and inhibitor was incubated at 37° C. under agitation at 300 rpm (rounds per minute) for 60 min in each case. Afterwards, 20 μl of a trichloroacetic acid solution (30%, w/v) were added. The mixture was placed on ice for 5 minutes and centrifuged afterwards for 3 min at 6000 rpm. The supernatant was removed.
(§5) To carry out fluorescence measurements, 100 μl of the supernatant were mixed with 100 μl Tris-HCl (trishydroxymethylaminomethane-HCl) having a concentration of 1 mol/l and a pH of 10.0. The fluorescence of this mixture was measured directly after adding Tris-HCl using an excitation wavelength of 530 nm and an emission wavelength of 590 nm on a CytoFluor 2350 apparatus (Millipore, Bedford, Mass., USA), wherein sensitivity was set to 2 and bandwidth was set to 7.
(§6) The average of three independent fluorescence measurements was calculated. The fluorescence of enzyme without inhibitor (i.e. inhibitor concentration of 0 nmol/l) was set to 100% enzyme activity. The activity of inhibited enzyme was calculated accordingly from the fluorescence of inhibited enzyme with respect to fluorescence of enzyme without inhibitor. Finally, the enzyme activity was plotted against the inhibitor concentration and the IC50 value was determined.

Sap3 of Candida albicans = Sap3 of Candida albicans (Candida albicans, UniProt P0CY29); test: Inhibition of proteolytic activity of Sap3 (resorufin-marked casein, fluorescence)
Experimental: as §1, §2, §3, §4, §5, §6

Sap5 = Sap5 (Candida albicans, UniProt P43094); test: Inhibition of proteolytic activity of Sap5
Experimental: as §1, §2, §4, §5, §6

Sap6 of Candida albicans = Sap6 of Candida albicans (Candida albicans, UniProt Q5AC08); test: Inhibition of proteolytic activity of Sap6 (resorufin-marked casein, fluorescence)
Experimental: as §1, §2, §3, §4, §5, §6

Saps of Candida albicans = test: Overall Sap inhibition (summary of table 1); settings: table 1 summary
Experimental: as §1, §2
as §3, with “Different Sap inhibitors were added, resulting in a final inhibitor concentration of 1 nmol/1, 2 nmol/1, 5 nmol/1, 10 nmol/l, nmol/l or 50 nmol/l in each case. One enzyme-substrate sample was left without addition of inhibitor. All experiments were performed in triplicate.” left out
as §5, §6

Sap6 of Candida albicans, sequence (Q5AC08 77-418): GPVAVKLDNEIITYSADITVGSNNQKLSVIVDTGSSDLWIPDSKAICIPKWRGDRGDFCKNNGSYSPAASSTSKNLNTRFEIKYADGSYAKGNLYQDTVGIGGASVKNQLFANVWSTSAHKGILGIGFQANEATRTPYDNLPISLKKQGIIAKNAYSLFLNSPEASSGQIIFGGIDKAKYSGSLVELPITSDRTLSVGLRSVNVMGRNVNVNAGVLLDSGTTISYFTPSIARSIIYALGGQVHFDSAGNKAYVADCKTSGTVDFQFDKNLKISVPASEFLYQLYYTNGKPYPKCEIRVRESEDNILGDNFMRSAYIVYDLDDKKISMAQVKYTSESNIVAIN
Sap3 of Candida albicans, sequence (P0CY29 59-398): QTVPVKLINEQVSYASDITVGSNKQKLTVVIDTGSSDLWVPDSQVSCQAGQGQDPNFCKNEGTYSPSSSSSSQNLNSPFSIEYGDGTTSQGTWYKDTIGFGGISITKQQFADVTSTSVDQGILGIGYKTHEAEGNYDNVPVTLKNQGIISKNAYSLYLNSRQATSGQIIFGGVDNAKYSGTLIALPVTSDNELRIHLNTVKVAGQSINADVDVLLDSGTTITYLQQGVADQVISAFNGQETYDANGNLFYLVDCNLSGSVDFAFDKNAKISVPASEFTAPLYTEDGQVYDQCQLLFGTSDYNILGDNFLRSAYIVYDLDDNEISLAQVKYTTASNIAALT
Sap1 of Candida albicans, sequence (P0CY27 51-391): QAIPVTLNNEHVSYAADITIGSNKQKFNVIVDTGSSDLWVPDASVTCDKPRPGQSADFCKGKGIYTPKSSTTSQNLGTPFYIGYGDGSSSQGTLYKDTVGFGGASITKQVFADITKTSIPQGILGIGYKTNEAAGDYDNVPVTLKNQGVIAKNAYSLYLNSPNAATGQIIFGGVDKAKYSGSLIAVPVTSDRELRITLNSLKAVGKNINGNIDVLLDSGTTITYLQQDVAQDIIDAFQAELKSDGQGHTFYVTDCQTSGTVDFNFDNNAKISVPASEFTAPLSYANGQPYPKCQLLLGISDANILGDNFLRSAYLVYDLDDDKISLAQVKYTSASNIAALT
Sap5, sequence (P43094 77-418): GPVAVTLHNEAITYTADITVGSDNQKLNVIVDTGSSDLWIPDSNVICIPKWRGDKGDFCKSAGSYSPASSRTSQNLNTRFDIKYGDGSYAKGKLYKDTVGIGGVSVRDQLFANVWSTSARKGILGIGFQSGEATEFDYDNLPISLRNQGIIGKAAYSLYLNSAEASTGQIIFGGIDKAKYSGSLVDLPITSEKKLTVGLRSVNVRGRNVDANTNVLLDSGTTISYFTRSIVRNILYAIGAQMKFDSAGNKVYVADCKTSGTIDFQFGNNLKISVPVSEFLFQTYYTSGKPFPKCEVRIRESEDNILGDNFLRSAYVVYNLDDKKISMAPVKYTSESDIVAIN

| SMILES | IC50 (Sap1 of Candida albicans) [nM] | IC50 (Sap3 of Candida albicans) [nM] | IC50 (Sap5) [nM] | IC50 (Sap6 of Candida albicans) [nM] | IC50 values, range (Saps of Candida albicans) |
| --- | --- | --- | --- | --- | --- |
| CC(C)CN(C[C@@H](O)[C@H](Cc1ccccc1)NC(=O)O[C@H]1CCOC1)S(=O)(=O)c1ccc(N)cc1 [Amprenavir, reference compound] | ~5000 | ~20000 | ~33000 | > 50000 | in the range of micromole per litre |
| Cc1cccc(C)c1OCC(=O)N[C@@H](Cc1ccccc1)[C@@H](O)C[C@H](Cc1ccccc1)NC(=O)[C@H](C(C)C)N1CCCNC1=O [Lopinavir, reference compound] | 312000 | > 312000 | > 312000 | > 312000 | in the range of micromole per litre |
| CC(C)CC(=O)N[C@@H](Cc1cccc(F)c1)C(=O)N[C@H](C(=O)N[C@@H](CC(C)C)[C@@H](O)CC(=O)N[C@@H](C)C(=O)N[C@@H](CC(C)C)[C@@H](O)CC(=O)O)C(C)C [P3(m-FPhe)-pepstatin, (N-Iva-mFPhe)-Val-Sta-Ala-Sta] (Isovaleryl-[Phe(3-F)]V[Sta]A[Sta]-OH) | 10 | ~10 | ~10 | 10 |  |
| CC(C)CC(=O)N[C@@H](Cc1ccccc1F)C(=O)N[C@H](C(=O)N[C@@H](CC(C)C)[C@@H](O)CC(=O)N[C@@H](C)C(=O)N[C@@H](CC(C)C)[C@@H](O)CC(=O)O)C(C)C [P3(o-FPhe)-pepstatin, (N-Iva-oFPhe)-Val-Sta-Ala-Sta] (Isovaleryl-[Phe(2-F)]V[Sta]A[Sta]-OH) | ~20 | ~20 | ~50 | ~100 |  |
| CC(C)CC(=O)N[C@H](C(=O)N[C@H](C(=O)N[C@@H](CC(C)C)[C@@H](O)CC(=O)N[C@@H](C)C(=O)N[C@@H](CC(C)C)[C@@H](O)CC(=O)O)C(C)C)C(C)C [Pepstatin A] (Isovaleryl-VV[Sta]A[Sta]-OH) | ~7 | ~1 | 5 | ~7 |  |
| CC(C)c1nc(CN(C)C(=O)N[C@H](C(=O)N[C@@H](Cc2ccccc2)C[C@H](O)[C@H](Cc2ccccc2)NC(=O)OCc2cncs2)C(C)C)cs1 [Ritonavir] |  |  |  |  | in the range of micromole per litre |

Reference: patent publication US8809498B2, “Pepstatin A derivatives” (priority 2008, dated 2014)
